Results: PubChem BioAssay (NCI)
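Interpolation was linear, between the two tested concentrations surrounding the appropriate level; five concentrations were tested over 48 hours in 96-well plates. Here, GI50 denotes the concentration required for 50% inhibition of growth. TGI: concentration producing complete growth inhibition.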

How the values were obtained:
Assay in all cases: inhibition of tumour cell growth, NCI panel, 48 h
[1] = tested on: 786-0 renal
[2] = tested on: A498 renal
[3] = tested on: A549 NSCLC
[4] = tested on: ACHN renal
[5] = tested on: BT-549 breast
[6] = tested on: CAKI-1 renal
[7] = tested on: CCRF-CEM leukemia
[8] = tested on: COLO 205 colon
[9] = tested on: DU-145 prostate
[10] = tested on: EKVX NSCLC
[11] = tested on: HCC-2998 colon
[12] = tested on: HCT-116 colon
[13] = tested on: HL-60(TB) leukemia
[14] = tested on: HOP-62 NSCLC
[15] = tested on: HOP-92 NSCLC
[16] = tested on: HS 578T breast
[17] = tested on: HT29 colon
[18] = tested on: IGROV1 ovarian
[19] = tested on: K-562 leukemia
[20] = tested on: LOX IMVI melanoma
[21] = tested on: M14 melanoma
[22] = tested on: MALME-3M melanoma
[23] = tested on: MCF7 breast
[24] = tested on: MDA-MB-231 breast
[25] = tested on: MDA-MB-435
[26] = tested on: MOLT-4 leukemia
[27] = tested on: NCI-H226 lung
[28] = tested on: NCI-H23 lung
[29] = tested on: NCI-H460 lung
[30] = tested on: NCI-H522 lung
[31] = tested on: NCI/ADR-RES ovarian
[32] = tested on: OVCAR-3 ovarian
[33] = tested on: OVCAR-4 ovarian
[34] = tested on: OVCAR-5 ovarian
[35] = tested on: OVCAR-8 ovarian
[36] = tested on: PC-3 prostate
[37] = tested on: RPMI-8226 leukemia
[38] = tested on: RXF 393 renal
[39] = tested on: SF-268 CNS
[40] = tested on: SF-295 CNS
[41] = tested on: SF-539 CNS
[42] = tested on: SK-MEL-2 melanoma
[43] = tested on: SK-MEL-28 melanoma
[44] = tested on: SK-MEL-5 melanoma
[45] = tested on: SK-OV-3 ovarian
[46] = tested on: SN12C renal
[47] = tested on: SNB-19 CNS
[48] = tested on: SNB-75 CNS
[49] = tested on: SR leukemia
[50] = tested on: SW-620 colon
[51] = tested on: T-47D breast
[52] = tested on: TK-10 renal
[53] = tested on: U251 CNS
[54] = tested on: UACC-257 melanoma
[55] = tested on: UACC-62 melanoma
[56] = tested on: UO-31 renal

CN(C)CCS(=O)(=O)Nc1cc(-c2ccc3ncc(C#N)c(Nc4ccc(F)c(Cl)c4)c3c2)cnc1Cl
GI50 [1]: 307 nM
TGI [1]: 3610 nM
GI50 [2]: 144 nM
TGI [2]: 344 nM
GI50 [3]: 1140 nM
TGI [3]: 4790 nM
GI50 [4]: 546 nM
TGI [4]: > 100000 nM
GI50 [5]: 107 nM
TGI [5]: 485 nM
GI50 [6]: 91.3 nM
TGI [6]: 511 nM
GI50 [7]: 110 nM
TGI [7]: 8460 nM
GI50 [8]: 188 nM
TGI [8]: 439 nM
GI50 [9]: 293 nM
TGI [9]: 2110 nM
GI50 [10]: 230 nM
TGI [10]: 1470 nM
GI50 [11]: 198 nM
TGI [11]: 393 nM
GI50 [12]: 214 nM
TGI [12]: 690 nM
GI50 [13]: 70.8 nM
TGI [13]: 684 nM
GI50 [14]: 248 nM
TGI [14]: > 22700 nM
GI50 [15]: 32.2 nM
TGI [15]: 409 nM
GI50 [16]: 127 nM
TGI [16]: 1030 nM
GI50 [17]: 388 nM
TGI [17]: > 25900 nM
GI50 [18]: 77.7 nM
TGI [18]: 287 nM
GI50 [19]: 229 nM
TGI [19]: > 50500 nM
GI50 [20]: 117 nM
TGI [20]: 284 nM
GI50 [21]: 255 nM
TGI [21]: 1270 nM
GI50 [22]: 78.8 nM
TGI [22]: 469 nM
GI50 [23]: 106 nM
TGI [23]: 1390 nM
GI50 [24]: 185 nM
TGI [24]: 629 nM
GI50 [25]: 374 nM
TGI [25]: 3000 nM
GI50 [26]: 120 nM
TGI [26]: 547 nM
GI50 [27]: 281 nM
TGI [27]: 2590 nM
GI50 [28]: 159 nM
TGI [28]: 469 nM
GI50 [29]: 612 nM
TGI [29]: 3720 nM
GI50 [30]: 202 nM
TGI [30]: 883 nM
GI50 [31]: 2110 nM
TGI [31]: > 29300 nM
GI50 [32]: 130 nM
TGI [32]: 412 nM
GI50 [33]: 382 nM
TGI [33]: 10300 nM
GI50 [34]: 303 nM
TGI [34]: 4900 nM
GI50 [35]: 387 nM
TGI [35]: > 32600 nM
GI50 [36]: 227 nM
TGI [36]: 1720 nM
GI50 [37]: 223 nM
TGI [37]: 897 nM
GI50 [38]: 95.3 nM
TGI [38]: 348 nM
GI50 [39]: 122 nM
TGI [39]: 692 nM
GI50 [40]: 366 nM
TGI [40]: 2400 nM
GI50 [41]: 212 nM
TGI [41]: 1170 nM
GI50 [42]: 173 nM
TGI [42]: 532 nM
GI50 [43]: 176 nM
TGI [43]: 1280 nM
GI50 [44]: 118 nM
TGI [44]: 244 nM
GI50 [45]: 299 nM
TGI [45]: 1790 nM
GI50 [46]: 232 nM
TGI [46]: > 100000 nM
GI50 [47]: 248 nM
TGI [47]: 2940 nM
GI50 [48]: < 15.2 nM
TGI [48]: 562 nM
GI50 [49]: 282 nM
TGI [49]: > 100000 nM
GI50 [50]: 263 nM
TGI [50]: 1430 nM
GI50 [51]: 73.2 nM
TGI [51]: 650 nM
GI50 [52]: 155 nM
TGI [52]: 762 nM
GI50 [53]: 150 nM
TGI [53]: 746 nM
GI50 [54]: 273 nM
TGI [54]: 3510 nM
GI50 [55]: 169 nM
TGI [55]: 630 nM
GI50 [56]: 188 nM
TGI [56]: 1290 nM
